Publication PMC3610344, “Differential Cytotoxicity Responses by Dog and Rat Hepatocytes to Phospholipogenic Treatments” (Journal of Toxicology, 2013)
Like-named read-outs stand apart in the source and are kept apart here.

Columns and labels:
rat hepatocytes [1] = experiment: cells; type: cell-based; conditions: for IC50: 24 h treatment, read-out: Survival IC50; for % survival: average ± std dev
dog hepatocytes [2] = experiment: NBD-PE accumulation assay in dog hepatocytes; type: cell-based; conditions: for NBD-PE accumulation, control activity: 300 μM, 24 h, N = 1
From the text: Primary rat hepatocytes were freshly isolated from Han Wistar rats at AstraZeneca, using the collagenase perfusion method (Selgen, PO, 1976). Primary dog hepatocytes were isolated at AstraZeneca, or purchased from CellzDirect Corp. (Durham, NC), which also uses a collagenase perfusion method. Cells were centrifuged and resuspended in hepatocyte culture media, consisting of Williams E basal media (Sigma-Aldrich, Inc., St. Louis, MO) 5% Hyclone fetal bovine serum (ThermoFisher Scientific Inc., Rockford, IL), 15 mM HEPES (Mediatech Inc., Manassas, VA), 100 units/mL penicillin/streptomycin, 200 μM l-glutamine, 1X ITS (insulin, transferrin, selenium solution from Mediatech Inc.), and 30 nM dexamethasone (Sigma-Aldrich). Cells were suspended at 2.5 × 10^5 cell/mL and added to BD Biocoat collagen I coated microtiter plates at 100 μL/well, for a final count of 25,000 cells/well. Selection criterion for use of initial isolates was 85% minimal viability. Cells were incubated at 37°C in a CO2 incubator for 4 h to allow for cell attachment. Media was aspirated and replaced with hepatocyte culture media without fetal bovine serum and supplemented with 150 μg/mL Matrigel collagen matrix (BD Inc.). […]
In a modification of the procedure described by Morelli et al., hepatocytes were treated with drugs diluted into culture media containing 12 μg/mL NBD-PE (N-(7-nitrobenz-2-oxa-1,3-diazol-4-yl)-1,2-dihexadecanoyl-sn-glycero-3-phosphoethanolamine, triethylammonium salt) for 24 hours. […] This fluorescent dye stains only cells with compromised cell membranes thereby enabling their exclusion from NBD-PE cell quantitation by the Cellomics ArrayScan instrument. […] Labeled cells were analyzed using the Cellomics Arrayscan instrument (Cellomics Inc., Pittsburgh, PA) with version 3.5 equipment and software. The ArrayScan captures fluorescent images in the 3 channels relevant to this assay (Hoechst, TRITC for Sytox staining and FITC for NBD-PE staining) and performs automated image analysis to quantify cell nuclei, the number of dead cells, and NBD-PE dye fluorescent intensity. […]

dog hepatocytes [3] = experiment: Cell survival of primary dog hepatocytes (Cellomics Arrayscan); type: cell-based; conditions: for IC50: 24 h treatment
From the text: (§1) Primary rat hepatocytes were freshly isolated from Han Wistar rats at AstraZeneca, using the collagenase perfusion method (Selgen, PO, 1976). Primary dog hepatocytes were isolated at AstraZeneca, or purchased from CellzDirect Corp. (Durham, NC), which also uses a collagenase perfusion method. Cells were centrifuged and resuspended in hepatocyte culture media, consisting of Williams E basal media (Sigma-Aldrich, Inc., St. Louis, MO) 5% Hyclone fetal bovine serum (ThermoFisher Scientific Inc., Rockford, IL), 15 mM HEPES (Mediatech Inc., Manassas, VA), 100 units/mL penicillin/streptomycin, 200 μM l-glutamine, 1X ITS (insulin, transferrin, selenium solution from Mediatech Inc.), and 30 nM dexamethasone (Sigma-Aldrich). Cells were suspended at 2.5 × 10^5 cell/mL and added to BD Biocoat collagen I coated microtiter plates at 100 μL/well, for a final count of 25,000 cells/well. Selection criterion for use of initial isolates was 85% minimal viability. Cells were incubated at 37°C in a CO2 incubator for 4 h to allow for cell attachment. Media was aspirated and replaced with hepatocyte culture media without fetal bovine serum and supplemented with 150 μg/mL Matrigel collagen matrix (BD Inc.). Cells were incubated in a CO2 incubator for 24 h, the media was replaced with hepatocyte culture media, and the cells were incubated for an additional 24 h. Compounds were solubilized in DMSO, water, or ethanol to 1000X stock and then diluted to 1X in media. All conditions contained equal concentrations of vehicle.
(§2) In a modification of the procedure described by Morelli et al., hepatocytes were treated with drugs diluted into culture media containing 12 μg/mL NBD-PE (N-(7-nitrobenz-2-oxa-1,3-diazol-4-yl)-1,2-dihexadecanoyl-sn-glycero-3-phosphoethanolamine, triethylammonium salt) for 24 hours. At the end of the treatment period, Sytox orange (100 nM Invitrogen Inc.) was added to cells for 20 minutes prior to fixation. This fluorescent dye stains only cells with compromised cell membranes thereby enabling their exclusion from NBD-PE cell quantitation by the Cellomics ArrayScan instrument. Media were aspirated, cells were washed with 1X PBS and fixed by the addition of 100 μL PBS containing 3.7% formaldehyde, and 1 μg/mL Hoechst dye. Fixation was allowed to proceed for 30 min at RT, and cells were washed three times with 1X PBS, and sealed for imaging. Labeled cells were analyzed using the Cellomics Arrayscan instrument (Cellomics Inc., Pittsburgh, PA) with version 3.5 equipment and software. The ArrayScan captures fluorescent images in the 3 channels relevant to this assay (Hoechst, TRITC for Sytox staining and FITC for NBD-PE staining) and performs automated image analysis to quantify cell nuclei, the number of dead cells, and NBD-PE dye fluorescent intensity. The analysis algorithms that enable cell versus well-based detection were purchased from Cellomics Inc. and are referred to as Cell Health Profiling (CHP) and Target Activation (TA) algorithms. […] NBD-PE peak signal was defined as the maximal response.

splenocyte = tested on: splenocyte; design: method as in PMID 16463016; conditions: in vitro, tested independently; cited from earlier work
rat hepatocytes [4] = experiment: NBD-PE accumulation assay in rat hepatocytes; type: cell-based, Han Wistar rats; conditions: for NBD-PE accumulation, control activity: 300 μM, N = 1
From the text: as §1, §2

rat liver = experiment: Preclinical in vivo toxicology studies in rat
dog liver = experiment: Preclinical in vivo toxicology studies in dog
rat hepatocytes [5] = experiment: Acridine orange lysosomal staining time course in rat hepatocytes; type: cell-based, Han Wistar rats
rat hepatocytes [6] = experiment: Mitochondrial membrane potential (JC-1 fluorescence) in rat hepatocytes; type: cell-based, Han Wistar rats
From the text: as §1
JC-1 was added to cell cultures at a concentration of 5 μg/mL for 30 minutes to allow for cellular accumulation. Media were then aspirated and replaced with fresh media containing drugs of interest without JC-1. Fluorescence was detected using a spectrofluorometer. The ratio of red to green signals was calculated and converted to % control for graphing and analysis.

[7] = tested on: isolated rat mitochondria; design: method as in PMID 17917797; conditions: cited from earlier work
[8] = Rattus norvegicus, Hepatocyte, 24 h
[9] = Canis lupus familiaris, Hepatocyte, 24 h
[10] = 1-month toxicology study, comparable plasma exposures, unpublished observations
[11] = preclinical toxicology studies (1-month for compound A), unpublished observations / data not shown

Q: For CCCc1cccc2c(N)c(C(=O)NCC3CC3)nnc12 [compound C], which IC50 (rat hepatocytes [1]; [8]) is on record?
A: > 300 µM

Q: What about the “NBD-PE accumulation, control activity” value (dog hepatocytes [2]) of the same compound?
A: 121%

Q: What about the IC50 (dog hepatocytes [3]; [9]) of the same compound?
A: > 300 µM

Q: And the “Phospholipogenic response in splenocyte model” value (“Phospholipogenic response” below) (splenocyte)?
A: negative

Q: And the “NBD-PE accumulation, control activity” value (rat hepatocytes [4]; 24 h)?
A: 95%

Q: Which “Centrilobular necrosis of liver” value (rat liver; [10]) does the source give for COc1cc2c(c(N3CCN(C)CC3)c1)O[C@@H](C(=O)Nc1ccc(N3CCOCC3)cc1)CC2 [compound A] here?
A: only dog had concomitant centrilobular necrosis

Q: What about the IC50 (rat hepatocytes [1]; Hepatocyte) of the same compound?
A: > 450 µM

Q: And the IC50 (dog hepatocytes [3]; Canis lupus familiaris, Hepatocyte)?
A: 298 ± 22 µM

Q: And the “Centrilobular necrosis of liver” value (dog liver; [10])?
A: only dog had concomitant centrilobular necrosis

Q: Which IC50 (rat hepatocytes [1]; [8]) does the source give for COc1cc2c(c(N3CCN(C)CC3)c1)O[C@@H](C(=O)Nc1ccc(N3CCOCC3)c(F)c1)CC2 [B] here?
A: > 300 µM

Q: What about the IC50 (dog hepatocytes [3]; [9]) of the same compound?
A: 153 ± 63 µM

Q: What about the “Phospholipogenic response” value (splenocyte) of the same compound?
A: phospholipogenic

Q: With Nc1ccc(N2CCOCC2)cc1 [compound D] as the compound, how does the IC50 (rat hepatocytes [1]; [8]) read?
A: > 300 µM

Q: What about the “NBD-PE accumulation, control activity” value (dog hepatocytes [2]) of the same compound?
A: 140%

Q: And the IC50 (dog hepatocytes [3]; [9])?
A: > 300 µM

Q: And the “Phospholipogenic response” value (splenocyte)?
A: negative

Q: And the “NBD-PE accumulation, control activity” value (rat hepatocytes [4]; 24 h)?
A: 101%

Q: For Cc1ccc(N2CCN(C)CC2)c2c1CC[C@@H](NC(=O)c1ccc(N3CCOCC3)cc1)C2 [NMTMB, N-[(2R)-5-methyl-8-(4-methylpiperazin-1-yl)tetralin-2-yl]-4-morpholino-benzamide], which “Phospholipidosis (PLD) in vivo” value (rat liver; [11]) is on record?
A: confirmed multiorgan in vivo phospholipogenics

Q: And the “Drop in cell survival” value (rat hepatocytes [1]; 100 μM, 8 h treatment)?
A: 40%

Q: What about the Hepatocytes surviving (rat hepatocytes [1]; 100 μM, 24 hr) of the same compound?
A: ~ 80%

Q: And the “% survival” value (rat hepatocytes [1]; 300 μM NMTMB alone)?
A: 9.3 ± 4%

Q: And the “% survival” value (rat hepatocytes [1]; 300 μM NMTMB cotreated with PADK)?
A: 51 ± 8.5%

Q: And the “Survival compared to control” value (rat hepatocytes [1]; 300 μM, 2 h)?
A: 20%

Q: What about the Cell death (rat hepatocytes [1]; 300 μM, 4 h) of the same compound?
A: cell death was complete

Q: What about the IC50 (rat hepatocytes [1]) of the same compound?
A: 148 ± 41 µM

Q: And the IC50 (rat hepatocytes [1]; [8])?
A: 159 µM

Q: What about the AO spot count (rat hepatocytes [5]; 100 μM, up to 8 h) of the same compound?
A: maintained or exceeded control levels

Q: What about the AO spot count (rat hepatocytes [5]; 300 μM, by 4 h) of the same compound?
A: ~0%

Q: What about the “Decline of AO spot count compared to control” value (rat hepatocytes [5]; 300 μM, within 30 minutes) of the same compound?
A: ~50%

Q: What about the “Time to maximum hyperpolarization” value (rat hepatocytes [6]; 100 μM) of the same compound?
A: ≤ 2 h

Q: And the “Time to mitochondria hyperpolarization” value (rat hepatocytes [6]; 100 μM)?
A: ≤ 1 h

Q: What about the Mitochondrial polarization status (rat hepatocytes [6]; 300 μM) of the same compound?
A: mitochondria depolarization was observed within the first hour

Q: And the “Mitochondrial polarization status with Baf cotreatment” value (rat hepatocytes [6]; 300 μM NMTMB plus 30 nM Baf, by 1 h)?
A: marked shift from mitochondrial depolarization to a hyperpolarized state

Q: And the Cells dead (dog hepatocytes [3]; 50 μM, 24 h)?
A: ~ 70%

Q: And the Cell death (dog hepatocytes [3]; 100 μM, 24 hr)?
A: complete cell death

Q: And the IC50 (dog hepatocytes [3]; [9])?
A: 37 ± 13 µM

Q: And the NBD-PE accumulation (rat hepatocytes [4]; 50 μM, 24 h)?
A: 4 fold vehicle control

Q: And the EC50 (rat hepatocytes [4]; Hepatocyte, approximate, estimated from left-hand portion of bell-shaped curve)?
A: ~65 µM

Q: And the “Phospholipidosis (PLD) in vivo” value (dog liver; [11])?
A: confirmed multiorgan in vivo phospholipogenics

Q: With CO/C1=C\C(C)=C\[C@@H](C)[C@@H](O)[C@@H](C)C/C(C)=C/C=C/[C@H](OC)[C@@H]([C@@H](C)[C@@H](O)[C@H](C)[C@@]2(O)C[C@@H](O)[C@H](C)[C@@H](C(C)C)O2)OC1=O [Baf, Bafilomycin A1, reference compound] as the compound, how does the “Increase in control NBD-PE fluorescent staining” value (dog hepatocytes [2]; 100 nM Baf) read?
A: 2 fold

Q: What about the “Increase in control NBD-PE fluorescent staining” value (rat hepatocytes [4]; 100 nM Baf) of the same compound?
A: 2 fold

Q: And the “Minimal concentration affecting mitochondrial functions (potassium uptake, swelling, loss of membrane potential, uncoupling)” value [7]?
A: 50 nM

Q: Which IC50 (rat hepatocytes [1]) does the source give for CCN(CCO)CCCC(C)Nc1ccnc2cc(Cl)ccc12 (centres unmarked) [Hydroxychloroquine, reference compound] here?
A: > 300 µM

Q: And the IC50 (rat hepatocytes [1]; [8])?
A: 220 µM

Q: And the Change in survival (rat hepatocytes [1]; control condition without Baf, 24 h)?
A: 25–35%

Q: What about the IC50 (dog hepatocytes [3]) of the same compound?
A: 159 µM

Q: What about the IC50 (dog hepatocytes [3]; [9]) of the same compound?
A: 90 µM

Q: Which IC50 (rat hepatocytes [1]; [8]) does the source give for O=C(O)Cc1ccccc1Nc1c(Cl)cccc1Cl [Diclofenac, reference compound] here?
A: 832 µM

Q: What about the IC50 (dog hepatocytes [3]; [9]) of the same compound?
A: 656 µM

Q: What about the “Phospholipogenic response” value (splenocyte) of the same compound?
A: negative
